Assay results: patent US8003666B2, “Hydrate for medical purposes” (priority 2006, dated 2011)
≈ marks a conversion by molar mass, not a printed value.

Key:
P. vulgaris, 08601 = test: Antibacterial activity MIC, Japanese Society of Chemotherapy standard procedure; assay type: cell-based; conditions: Proteus vulgaris
E. coli NIHJ = test: as above; conditions: Escherichia coli
S. marscecens, 10100 = test: as above
P. aeruginosa, 32104 = test: as above; conditions: Pseudomonas aeruginosa
P. aeruginosa, 32121 = test: as above; conditions: Pseudomonas aeruginosa
S. aureus, 209P = test: as above; conditions: Staphylococcus aureus
S. epidermidis, 56500 = test: as above; conditions: Staphylococcus epidermidis
E. faecalis, ATCC 19433 = test: as above; conditions: Enterococcus faecalis, ATCC19433
S. aureus, 87037 = test: as above; conditions: Staphylococcus aureus
S. pneumoniae, J24 = test: as above; conditions: Streptococcus pneumoniae
[1] = system: Mycobacterium tuberculosis (sensitive bacteria); test: Anti-mycobacterium tuberculosis activity MIC, sensitive bacteria; assay type: cell-based
E. coli E77156 strain = test: Therapeutic efficacy in rat simple cystitis model (E. coli); assay type: in vivo; conditions: orally once at 5, 20 and 80 mg/kg on the next day of infection, in comparison with the count at beginning of the treatment, FIG. 2
[2] = Moisture sorption and desorption behavior; assay type: physicochemical; conditions: atmospheric pressure type automatic water vapor adsorption device; FIG. 5
Description: Moisture sorption and desorption behavior was examined with an atmospheric pressure type automatic water vapor adsorption device for 7-[(7S)-7-amino-7-methyl-5-azaspiro[2.4]heptan-5-yl]-6-fluoro-1-[(1R,2S)-2-fluorocyclopropyl]-8-methoxy-1,4-dihydro-4-oxoquinoline-3-carboxylic acid hemihydrate obtained in Example 1.

[3] = Change in moisture sorption and desorption after thermal dehydration; assay type: physicochemical; conditions: thermal dehydration (60° C.); FIG. 6
Experimental: Change in moisture sorption and desorption after thermal dehydration (60° C.) was examined for 7-[(7S)-7-amino-7-methyl-5-azaspiro[2.4]heptan-5-yl]-6-fluoro-1-[(1R,2S)-2-fluorocyclopropyl]-8-methoxy-1,4-dihydro-4-oxoquinoline-3-carboxylic acid hemihydrate obtained in Example 1.

[4] = Change in crystalline form after thermal dehydration; assay type: physicochemical; conditions: X-ray diffraction on thermal treatments; FIG. 7
Description: Change in crystalline form by thermal treatment was examined for 7-[(7S)-7-amino-7-methyl-5-azaspiro[2.4]heptan-5-yl]-6-fluoro-1-[(1R,2S)-2-fluorocyclopropyl]-8-methoxy-1,4-dihydro-4-oxoquinoline-3-carboxylic acid hemihydrate obtained in Example 1.

[5] = Crystal stability on storage at controlled relative humidity; assay type: physicochemical; conditions: 25° C., 3 days
Experimental: Weight change and crystalline form were examined as to 7-[(7S)-7-amino-7-methyl-5-azaspiro[2.4]heptan-5-yl-6-fluoro-1-[(1R,2S)-2-fluorocyclopropyl]-8-methoxy-1,4-dihydro-4-oxoquinoline-3-carboxylic acid hemihydrate obtained in Example 1 by being stored under the condition of 0, 52 or 93% of relative humidity, at 25° C. for 3 days. The crystalline form was evaluated by measuring with powder X-ray diffraction and thermal analysis.

[6] = assay type: physicochemical
Experimental: 7-[(7S)-7-amino-7-methyl-5-azaspiro[2.4]heptan-5-yl]-6-fluoro-1-[(1R,2S)-2-fluorocyclopropyl]-8-methoxy-1,4-dihydro-4-oxoquinoline-3-carboxylic acid hemihydrate obtained in Example 1 was each stored for 2 weeks under wet heat condition (40° C., 75% RH), dry heat condition (50° C., of 0% RH) and photo irradiation condition.

## O=C(O)c1cn(C2CC2)c2cc(N3CCNCC3)c(F)cc2c1=O [CPFX, ciprofloxacin]
P. vulgaris, 08601
  MIC: ≤ 0.003 µg/mL
E. coli NIHJ
  MIC: ≤ 0.003 µg/mL
S. marscecens, 10100
  MIC: 0.025 µg/mL (≈ 0.0754 µM)
P. aeruginosa, 32104
  MIC: 0.05 µg/mL (≈ 0.151 µM)
P. aeruginosa, 32121
  MIC: 0.025 µg/mL (≈ 0.0754 µM)
S. aureus, 209P
  MIC: 0.1 µg/mL (≈ 0.302 µM)
S. epidermidis, 56500
  MIC: 0.2 µg/mL (≈ 0.604 µM)
E. faecalis, ATCC 19433
  MIC: 0.78 µg/mL (≈ 2.35 µM)
S. aureus, 87037
  MIC: > 6.25 µg/mL
S. pneumoniae, J24
  MIC: 0.39 µg/mL (≈ 1.18 µM)

## COc1c(N2CCNC(C)C2)c(F)cc2c(=O)c(C(=O)O)cn(C3CC3)c12 (centres unmarked) [GTFX, gatifloxacin]
P. vulgaris, 08601
  MIC: 0.006 µg/mL (≈ 0.016 µM)
E. coli NIHJ
  MIC: 0.006 µg/mL (≈ 0.016 µM)
S. marscecens, 10100
  MIC: 0.1 µg/mL (≈ 0.266 µM)
P. aeruginosa, 32104
  MIC: 0.2 µg/mL (≈ 0.533 µM)
P. aeruginosa, 32121
  MIC: 0.1 µg/mL (≈ 0.266 µM)
S. aureus, 209P
  MIC: 0.05 µg/mL (≈ 0.133 µM)
S. epidermidis, 56500
  MIC: 0.2 µg/mL (≈ 0.533 µM)
E. faecalis, ATCC 19433
  MIC: 0.39 µg/mL (≈ 1.04 µM)
S. aureus, 87037
  MIC: 1.56 µg/mL (≈ 4.16 µM)
S. pneumoniae, J24
  MIC: 0.2 µg/mL (≈ 0.533 µM)

## COc1c(N2CC3(CC3)[C@](C)(N)C2)c(F)cc2c(=O)c(C(=O)O)cn([C@@H]3C[C@@H]3F)c12 [Hemihydrate, 7-[(7S)-7-Amino-7-methyl-5-azaspiro[2.4]heptan-5-yl]-6-fluoro-1-[(1R,2S)-2-fluorocyclopropyl]-8-methoxy-1,4-dihydro-4-oxoquinoline-3-carboxylic acid hemihydrate]
P. vulgaris, 08601
  MIC: 0.025 µg/mL
[1]; H37RV, strain H37Rv
  MIC: 0.03 µg/mL
[1]; strain Kurono
  MIC: 0.03 µg/mL
[1]; strain Ravenel
  MIC: 0.03 µg/mL
[1]; strain TB-s 2
  MIC: 0.06 µg/mL
[1]; strain TB-s 3
  MIC: 0.06 µg/mL
[1]; strain TB-s 4
  MIC: 0.06 µg/mL
[1]; strain TB-s 5
  MIC: 0.06 µg/mL
[1]; strain TB-s 6
  MIC: 0.06 µg/mL
[1]; strain TB-s 7
  MIC: 0.06 µg/mL
[1]; strain TB-s 8
  MIC: 0.03 µg/mL
[1]; strain TB-s 9
  MIC: 0.06 µg/mL
[1]; strain TB-s 10
  MIC: 0.03 µg/mL
[1]; strain TB-s 11
  MIC: 0.06 µg/mL
[1]; strain TB-s 12
  MIC: 0.125 µg/mL
[1]; strain TB-s 13
  MIC: 0.06 µg/mL
[1]; strain TB-s 14
  MIC: 0.06 µg/mL
[1]; strain TB-s 15
  MIC: 0.06 µg/mL
[1]; strain TB-s 16
  MIC: 0.06 µg/mL
[1]; strain TB-s 17
  MIC: 0.06 µg/mL
[1]; strain TB-s 18
  MIC: 0.06 µg/mL
[1]; strain TB-s 19
  MIC: 0.06 µg/mL
[1]; strain TB-s 20
  MIC: 0.06 µg/mL
[1]; strain TB-s 21
  MIC: 0.06 µg/mL
[1]; strain TB-s 22
  MIC: 0.03 µg/mL
E. coli E77156 strain
  Bacterial count in the bladder: statistically significant decrease in bacterial count
[2]
  Weight change as humidity changes: ≤ 1%
[3]
  Moisture sorption and desorption after thermal dehydration: rehydrated rapidly after being dehydrated
[4]
  Crystalline form after thermal dehydration: had its crystalline state even after being dehydrated
[5]; 0% RH
  Weight Change (%): 0.00%
[5]; 0, 52 or 93% relative humidity, powder X-ray diffraction and thermal analysis
  Crystalline form after storage: the crystalline form did not change
[5]; 52% RH
  Weight Change (%): 0.43%
[5]; 93% RH
  Weight Change (%): 0.61%
[6]; photo irradiation condition
  Observation under photo irradiation condition: color change and some decrease in remaining ratio
[6]; wet heat (40° C., 75% RH) and dry heat (50° C., 0% RH), 2 weeks
  Content under wet heat and dry heat condition: stable and its content was not decreased
E. coli NIHJ
  MIC: 0.025 µg/mL
S. marscecens, 10100
  MIC: 0.1 µg/mL
P. aeruginosa, 32104
  MIC: 0.39 µg/mL
P. aeruginosa, 32121
  MIC: 0.2 µg/mL
S. aureus, 209P
  MIC: 0.025 µg/mL
S. epidermidis, 56500
  MIC: 0.1 µg/mL
E. faecalis, ATCC 19433
  MIC: 0.2 µg/mL
S. aureus, 87037
  MIC: 0.78 µg/mL
S. pneumoniae, J24
  MIC: 0.1 µg/mL

## C[C@H]1COc2c(N3CCN(C)CC3)c(F)cc3c(=O)c(C(=O)O)cn1c23 [LVFX, levofloxacin]
P. vulgaris, 08601
  MIC: 0.012 µg/mL (≈ 0.0332 µM)
E. coli NIHJ
  MIC: 0.012 µg/mL (≈ 0.0332 µM)
S. marscecens, 10100
  MIC: 0.1 µg/mL (≈ 0.277 µM)
P. aeruginosa, 32104
  MIC: 0.2 µg/mL (≈ 0.553 µM)
P. aeruginosa, 32121
  MIC: 0.1 µg/mL (≈ 0.277 µM)
S. aureus, 209P
  MIC: 0.2 µg/mL (≈ 0.553 µM)
S. epidermidis, 56500
  MIC: 0.39 µg/mL (≈ 1.08 µM)
E. faecalis, ATCC 19433
  MIC: 0.78 µg/mL (≈ 2.16 µM)
S. aureus, 87037
  MIC: > 6.25 µg/mL
S. pneumoniae, J24
  MIC: 0.78 µg/mL (≈ 2.16 µM)

## CO[C@H]1/C=C/O[C@@]2(C)Oc3c(C)c(O)c4c(O)c(c(/C=N/N5CCN(C)CC5)c(O)c4c3C2=O)NC(=O)/C(C)=C\C=C\[C@H](C)[C@H](O)[C@@H](C)[C@@H](O)[C@@H](C)[C@H](OC(C)=O)[C@@H]1C [RFP, rifampicin]
[1]; H37RV, strain H37Rv
  MIC: 0.125 µg/mL (≈ 0.152 µM)
[1]; strain Kurono
  MIC: 0.06 µg/mL (≈ 0.0729 µM)
[1]; strain Ravenel
  MIC: 0.125 µg/mL (≈ 0.152 µM)
[1]; strain TB-s 2
  MIC: 0.03 µg/mL (≈ 0.0365 µM)
[1]; strain TB-s 3
  MIC: 0.125 µg/mL (≈ 0.152 µM)
[1]; strain TB-s 4
  MIC: 0.06 µg/mL (≈ 0.0729 µM)
[1]; strain TB-s 5
  MIC: 0.06 µg/mL (≈ 0.0729 µM)
[1]; strain TB-s 6
  MIC: 0.125 µg/mL (≈ 0.152 µM)
[1]; strain TB-s 7
  MIC: 0.06 µg/mL (≈ 0.0729 µM)
[1]; strain TB-s 8
  MIC: 0.015 µg/mL (≈ 0.0182 µM)
[1]; strain TB-s 9
  MIC: 0.06 µg/mL (≈ 0.0729 µM)
[1]; strain TB-s 10
  MIC: 0.06 µg/mL (≈ 0.0729 µM)
[1]; strain TB-s 11
  MIC: 0.06 µg/mL (≈ 0.0729 µM)
[1]; strain TB-s 12
  MIC: 0.125 µg/mL (≈ 0.152 µM)
[1]; strain TB-s 13
  MIC: 0.06 µg/mL (≈ 0.0729 µM)
[1]; strain TB-s 14
  MIC: 0.03 µg/mL (≈ 0.0365 µM)
[1]; strain TB-s 15
  MIC: 0.06 µg/mL (≈ 0.0729 µM)
[1]; strain TB-s 16
  MIC: 0.06 µg/mL (≈ 0.0729 µM)
[1]; strain TB-s 17
  MIC: 0.06 µg/mL (≈ 0.0729 µM)
[1]; strain TB-s 18
  MIC: 0.03 µg/mL (≈ 0.0365 µM)
[1]; strain TB-s 19
  MIC: 0.125 µg/mL (≈ 0.152 µM)
[1]; strain TB-s 20
  MIC: 0.25 µg/mL (≈ 0.304 µM)
[1]; strain TB-s 21
  MIC: 0.03 µg/mL (≈ 0.0365 µM)
[1]; strain TB-s 22
  MIC: 0.015 µg/mL (≈ 0.0182 µM)
